Drawing on PubChem BioAssay (NCI), this text covers GI50 and TGI for nine compounds.

Some test systems named below: SK-MEL-2 melanoma; CCRF-CEM leukemia; UACC-257 melanoma; MALME-3M melanoma; OVCAR-4 ovarian; EKVX NSCLC; NCI-H460 lung; SW-620 colon; A498 renal; M14 melanoma.
Common to all, as to assay: NCI tumour cell line growth inhibition, 48 h

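Protocol summary: plate cells (96-well), add compound at 5 concentrations, incubate 48 h, interpolate endpoints linearly. Abbreviation: GI50, concentration required for 50% inhibition of growth. TGI marks complete inhibition of growth.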

Consider `O=c1cc(-c2ccccc2)oc2c(O)c(O)ccc12`, for which the GI50 is 44.9 µM with SK-MEL-2 melanoma; 3.45 µM in the experiment on CCRF-CEM leukemia; 18.6 µM in the experiment with UACC-257 melanoma; 17.4 µM in the experiment on MALME-3M melanoma; 3.73 µM with OVCAR-4 ovarian; 18.4 µM in the experiment with EKVX NSCLC. Besides, the GI50 in the experiment with NCI-H460 lung was 4.44 µM; with SW-620 colon it was 6.66 µM; in the experiment on A498 renal, 21.5 µM; with M14 melanoma, 9.55 µM. Moreover, the TGI is greater than 100 µM with SK-MEL-2 melanoma; greater than 100 µM in the experiment with CCRF-CEM leukemia; 88.5 µM in the experiment on UACC-257 melanoma; 60.2 µM in the experiment on MALME-3M melanoma; greater than 100 µM in the experiment with OVCAR-4 ovarian; greater than 100 µM in the experiment with EKVX NSCLC. The TGI in the experiment with NCI-H460 lung is greater than 100 µM; in the experiment on SW-620 colon, greater than 100 µM; in the experiment on A498 renal, greater than 100 µM; in the experiment on M14 melanoma, 41.4 µM.
As to `CC(=O)O[C@H]1CC[C@@]2(C)C(=CC[C@H]3C(CC#N)[C@@](C)(C#N)CCC32)C1` (stereo not given in full), the TGI with SK-MEL-2 melanoma, with CCRF-CEM leukemia, in the experiment on UACC-257 melanoma, in the experiment with MALME-3M melanoma, with OVCAR-4 ovarian and in the experiment on EKVX NSCLC was greater than 100 µM in each case. Moreover, the TGI in the experiment with NCI-H460 lung, in the experiment on SW-620 colon, in the experiment with A498 renal and in the experiment with M14 melanoma was greater than 100 µM throughout.
In the case of `N#Cc1ccc2[nH]cc(Cc3c[nH]c4ccc(C#N)cc34)c2c1`, the GI50 in the experiment with SK-MEL-2 melanoma was 9.63 µM; in the experiment with CCRF-CEM leukemia it was 12.8 µM; in the experiment with UACC-257 melanoma it was 10.1 µM; in the experiment on MALME-3M melanoma, 6.98 µM; in the experiment with OVCAR-4 ovarian, 18.5 µM; with EKVX NSCLC, 14.9 µM. Besides, the GI50 with NCI-H460 lung is 9.16 µM; with SW-620 colon, 17.8 µM; in the experiment with A498 renal it was 10.1 µM; with M14 melanoma, 10.9 µM. Besides, the TGI is 21 µM in the experiment with SK-MEL-2 melanoma; 39.4 µM in the experiment on CCRF-CEM leukemia; 23.4 µM in the experiment with UACC-257 melanoma; 21.1 µM in the experiment on MALME-3M melanoma; greater than 50 µM in the experiment on OVCAR-4 ovarian; greater than 50 µM in the experiment with EKVX NSCLC. The TGI with NCI-H460 lung is 23.5 µM; in the experiment with SW-620 colon, greater than 50 µM; in the experiment on A498 renal it was 22 µM; with M14 melanoma, 24.3 µM.
On to `CO[C@H]1/C=C/O[C@@]2(C)Oc3c(C)c(O)c4c(O)c(c(/C=N/N5C(C)CN(Cc6ccc(C#N)cc6)CC5C)c(O)c4c3C2=O)NC(=O)/C(C)=C\C=C\[C@H](C)[C@H](O)[C@@H](C)[C@@H](O)[C@@H](C)[C@H](OC(C)=O)[C@@H]1C` (stereo not given in full), for which the GI50 with SK-MEL-2 melanoma is 7.92 µM; in the experiment with CCRF-CEM leukemia it was 2.12 µM; with UACC-257 melanoma it was 6.35 µM; in the experiment on MALME-3M melanoma, 8.56 µM; with OVCAR-4 ovarian, 7.49 µM; with EKVX NSCLC, 4.26 µM. Moreover, the GI50 in the experiment with NCI-H460 lung was 5.76 µM; in the experiment on SW-620 colon, 8.15 µM; in the experiment on A498 renal, 7.06 µM; with M14 melanoma, 7.6 µM. Further, the TGI was found to be 15.9 µM in the experiment on SK-MEL-2 melanoma; 12.3 µM in the experiment with CCRF-CEM leukemia; 15.8 µM in the experiment with UACC-257 melanoma; 20.5 µM in the experiment on MALME-3M melanoma; 26.4 µM with OVCAR-4 ovarian; 39.4 µM in the experiment on EKVX NSCLC. In addition, the TGI in the experiment on NCI-H460 lung amounted to 14.1 µM; in the experiment on SW-620 colon, 17.5 µM; in the experiment with A498 renal it was 14 µM; in the experiment with M14 melanoma it was 16.2 µM.
Take `COc1cccc(/C=C2\N=C(Cl)OC2=O)c1O`: the TGI in the experiment with SK-MEL-2 melanoma, in the experiment on CCRF-CEM leukemia, with UACC-257 melanoma, with MALME-3M melanoma, in the experiment on OVCAR-4 ovarian and in the experiment with EKVX NSCLC was greater than 100 µM throughout. Besides, the TGI in the experiment on NCI-H460 lung, in the experiment on SW-620 colon, in the experiment with A498 renal and in the experiment with M14 melanoma was greater than 100 µM in each case.
For the compound `Cn1c(=O)nc2n(-c3ccc(F)c(F)c3)c3ccccc3nc-2c1=O`, the TGI stood at 55.3 µM in the experiment on SK-MEL-2 melanoma; 42.2 µM in the experiment on CCRF-CEM leukemia; 20.1 µM in the experiment with UACC-257 melanoma; 24.3 µM in the experiment with MALME-3M melanoma; 21.1 µM with OVCAR-4 ovarian; 17.7 µM in the experiment on EKVX NSCLC. For the same compound, the TGI in the experiment on NCI-H460 lung is 35.5 µM; with SW-620 colon, 20.3 µM; with A498 renal, greater than 100 µM; in the experiment with M14 melanoma, 45 µM.
With `NC(CCl)=NCC12CC3CC(CC(C3)C1)C2`, the GI50 with SK-MEL-2 melanoma was 2.06 µM; in the experiment on CCRF-CEM leukemia, 0.348 µM; with UACC-257 melanoma, 1.75 µM; in the experiment on MALME-3M melanoma it was 6.32 µM; in the experiment on OVCAR-4 ovarian, 1.87 µM; in the experiment on EKVX NSCLC it was 2.23 µM. The GI50 was 0.44 µM in the experiment with NCI-H460 lung, 0.338 µM with SW-620 colon, 1.37 µM in the experiment on A498 renal and 1.32 µM in the experiment on M14 melanoma. The TGI in the experiment on SK-MEL-2 melanoma came to 7.46 µM; in the experiment on CCRF-CEM leukemia, 3.27 µM; in the experiment on UACC-257 melanoma it was 5.27 µM; in the experiment on MALME-3M melanoma, 27.3 µM; in the experiment on OVCAR-4 ovarian, 17.4 µM; with EKVX NSCLC it was 21.1 µM. For the same compound, the TGI in the experiment on NCI-H460 lung worked out at 4.6 µM; with SW-620 colon, 4.37 µM; in the experiment on A498 renal, 13.4 µM; in the experiment with M14 melanoma, 4.39 µM.
On to `FC(F)(F)c1cccc(Oc2ccc(Nc3ncnc4ccc(OCCCN5CCOCC5)cc34)cc2Cl)c1`, for which the GI50 with SK-MEL-2 melanoma was 2.54 µM; with CCRF-CEM leukemia, 2.77 µM; in the experiment with UACC-257 melanoma it was 2.03 µM; with MALME-3M melanoma, 1.6 µM; with OVCAR-4 ovarian, 2.52 µM; in the experiment on EKVX NSCLC, 0.872 µM. Besides, the GI50 is 1.9 µM in the experiment with NCI-H460 lung, 1.69 µM in the experiment with SW-620 colon, 2.37 µM with A498 renal and 1.75 µM with M14 melanoma. Further, the TGI with SK-MEL-2 melanoma turned out to be 6.1 µM; in the experiment on CCRF-CEM leukemia it was 11.2 µM; in the experiment with UACC-257 melanoma, 4.52 µM; in the experiment on MALME-3M melanoma it was 3.07 µM; with OVCAR-4 ovarian, 12.7 µM; in the experiment on EKVX NSCLC, 8.47 µM. Further, the TGI in the experiment on NCI-H460 lung came out at 3.56 µM; in the experiment with SW-620 colon, 3.23 µM; in the experiment with A498 renal, 12.8 µM; in the experiment with M14 melanoma it was 3.51 µM.
Regarding `CCC(CO)Nc1nc(NCc2ccccc2)c2n[nH]c(C(C)C)c2n1` (stereo not given), the GI50 was 5.15 µM in the experiment with SK-MEL-2 melanoma; 6.55 µM with CCRF-CEM leukemia; 16.6 µM in the experiment with UACC-257 melanoma; 13 µM in the experiment on MALME-3M melanoma; 6.81 µM in the experiment on OVCAR-4 ovarian; 12.1 µM with EKVX NSCLC. In addition, the GI50 is 4.94 µM in the experiment with NCI-H460 lung, 4.76 µM in the experiment on SW-620 colon, 11.6 µM in the experiment on A498 renal and 6.21 µM with M14 melanoma. Also, the TGI turned out to be 21.4 µM in the experiment with SK-MEL-2 melanoma; 52.6 µM with CCRF-CEM leukemia; 35.6 µM in the experiment on UACC-257 melanoma; 27.4 µM in the experiment with MALME-3M melanoma; 25.6 µM in the experiment with OVCAR-4 ovarian; 27.4 µM in the experiment on EKVX NSCLC. For the same compound, the TGI in the experiment with NCI-H460 lung is 19.4 µM; in the experiment with SW-620 colon, 18 µM; with A498 renal it was 24.4 µM; in the experiment on M14 melanoma, 20.2 µM.
